From US4847297A, “Use of penicillamine for treating immune damaging illnesses” (Degussa Aktiengesellschaft, priority 1985, dated 1989)

Tests used:
non-infected H9 cells = assay: in vitro; type: cell-based, human
Procedure: (§1) HTLV-III virus infection of H9 cells (human T-cell line of a leukemia patient of the National Cancer Institute, Bethesda, Md., USA); the H9 cells were trreated with Polybrene (Hexadimethrine bromide) (2 μg/ml) for 30 minutes at 37° C., subsequently the Polybrene was washed out and the cells were infected with 2×10^8 HTLV virus particles per 4×10^5 H9 cells. Before the infection, the virus was incubated with the material at various concentrations for 45 minutes at 37° C. For controls, the virus was incubated under the same experimental conditions but without addition of the material. The cell cultures were analyzed on the 4th day after infection as follows:
(§2) In order to show the selectivity of the effect on the replication of HTLV-III virus, the effect of D- and L-penicillamine on the growth of H9 cells can be examined.
(§3) The number of cells was determined 4 days after the experiment began.

[1] = test system: HTLV-III virus (LAV-I virus); assay: inhibition of HTLV-III (LAV-I) virus replication in cell culture; type: cell-based, HTLV-III virus in H9 cells (human T-cell line); settings: in vitro; for inhibition at 20 µg/mL / inhibition at 40 µg/mL: Human immunodeficiency virus 1, H9, 96 h, cell culture; for inhibition at 20 µg/mL: 20 μg/ml, read-out: prevention of replication of HTLV-III virus (LAV-I virus); for inhibition at 40 µg/mL: 40 μg/ml, read-out: effectiveness in vitro (prevention of virus replication)
Procedure: At a concentrate of 20 μg/ml the replication of HTLV-III--virus (LAV-I-virus) is prevented in a cell culture with L-penicillamine to an extent of about 95% and with D-penicillamine to about 80%. At a concentration of 40 μg/ml, the effectiveness of both L-penicillamine and D-penicillamine in vitro is nearly 100%.
as §1
(§4) Immunofluorescence analysis: The effect of D- and L-penicillamine on the propagation of the HTLV-III virus in H9 cells was determined by measuring the proteins p15 and p24 (molecular weight 15,000 respectively 24,000) present in HTLV-III. The immunofluorescence analysis was carried out on fixed methanol:acetone (1:1) cells using monoclonal antibodies (National Cancer Institute USA) against HTLV-III p15 and p24. The infected cells treated with or without penicillamine were secured on toxoplasmosis glass slides. After 30 minutes treatment with methanol-acetone (1:1) at room temperature, the glass slides were stored in closed plastic containers at -20° C. until use. The monoclonal antibodies were added to duplicate wells, incubated at room temperature in a moist chamber for 1 hour and washed with PBS (phosphate buffered saline) solution containing 0.25% Triton X-100 for two hours. The cells were then exposed to goatantimouse IgG (Capell Labs.) bound with fluorescein (FITC) for 1 hour and washed with PBS buffer solution containing 0.25% Triton X-100 overnight. The glass sides were mounted with 50% glycerine and the cell fluorescence observed with a Zeiss fluorescence microscope.

[2] = test system: HTLV-III infected H9 cells; assay: growth of HTLV-III infected H9 cells; type: cell-based, human; settings: for Number of cells/ml × 10^-6, infected / effect on number of infected H9 cells (in words): 4 days after infection; for Number of cells/ml × 10^-6, infected: control 0.18; for effect on number of infected H9 cells (in words): increasing concentration; for protective effect on T-cells: infected H9 cells
Procedure: as §1, §2, §3
4 days after the infection with the HTLV-III virus the number of H9 cells is reduced from 1.24×10^6 to 0.18×10^6.

[3] = test system: HTLV-III virus (viral protein p15); assay: propagation of HTLV-III in H9 cells, formation of viral protein p15, immunofluorescence with monoclonal antibodies; type: cell-based, HTLV-III virus in H9 cells (human T-cell line); settings: for prevention of the formation of p15 virus protein (in words): FIG. 1, concentration dependence; for inhibition at 40 µg/mL: Human immunodeficiency virus 1, H9, 40 μg/ml, 4th day after infection
Procedure: FIG. 1 is a graph of the effect of D- and L-penicillamine on the propagation of HTLV-III in H9 cells through the function of the concentration determined by the formation of the viral protein 15; and
as §1, §4
(§5) The effect of D- and L-penicillamine on the propagation of HTLV-III in H9 cells was determined through the function of the material concentration by the formation of the viral proteins p15 (FIG. 1) and p24 (FIG. 2) in an immunofluorescence assay with monoclonal antibodies.

[4] = test system: HTLV-III virus (viral protein p24); assay: propagation of HTLV-III in H9 cells, formation of viral protein p24, immunofluorescence with monoclonal antibodies; type: cell-based, HTLV-III virus in H9 cells (human T-cell line); settings: for prevention of the formation of p24 (in words): FIG. 2, same manner as with p15; for IC100: Human immunodeficiency virus 1, H9, 96 h, p24, FIG. 2, 4th day after infection, read-out: concentration needed for complete inactivation of the viral replication
Procedure: FIG. 2 is a similar graph where the determination was by the formation of viral protein p24.
as §1, §4, §5

[5] = in vivo, cited from earlier work
in vitro = type: cell-based, human; settings: human, h9 cells
Procedure: as §1, §2, §3

[6] = test system: plasma proteins (preponderantly albumen); settings: cited from earlier work

SMILES | Number of cells/ml × 10^-6, infected ([2]; 30 μg/ml) [cells/ml × 10^-6] | Number of cells/ml × 10^-6, infected ([2]; 40 μg/ml) [cells/ml × 10^-6] | Number of cells/ml × 10^-6, infected ([2]; 100 μg/ml) [cells/ml × 10^-6] | effect on number of infected H9 cells (in words) [2] | protective effect on T-cells [2] | prevention of the formation of p15 virus protein (in words) [3] | inhibition at 40 µg/mL [3] [%] | prevention of the formation of p24 (in words) [4] | IC100 [4] [µg/mL] | inhibition at 20 µg/mL [1] [%] | inhibition at 40 µg/mL [1] [%] | other results
CC(C)(S)[C@H](N)C(=O)O [penicillamine] |  |  |  |  |  |  |  |  |  |  |  | toxicity to the normal cell growth (non-infected H9 cells): shows no toxicity to the normal cell growth; inhibition of virus replication (in words) [1]: can greatly inhibit the virus replication
CC(C)(S)[C@H](N)C(=O)O [L-penicillamine] | 0.35 | 0.38 | 0.98 | considerable increase of the cell number | protective effect on T-cells | concentration dependent prevention of the formation of p15 virus protein | 98.5 to 99.4 | prevent the formation of p24 | 40 | ~95 | ~100 | effectiveness at lower concentration, L- versus D-penicillamine (p15) ([3]; lower concentration, FIG. 1): more effective than D-penicillamine
CC(C)(S)[C@@H](N)C(=O)O [D-penicillamine] | 0.27 | 0.35 | 0.8 | considerable increase of the cell number | protective effect on T-cells | concentration dependent prevention of the formation of p15 virus protein | 98.5 to 99.4 | prevent the formation of p24 | 40 | ~80 | ~100 | resorption after oral administration ([5]; po): about 60%; distribution over the entire organism [5]: distributed relatively quickly over the entire organism; elimination in unchanged form [5]: up to 10%; route and form of elimination [5]: predominantly via the kidneys, the greatest part as disulfide; MCC at 96 h (in vitro): > 100 µg/mL; binding to plasma proteins [6]: bound to plasma proteins (preponderantly albumen); free (not protein bound) concentration with increasing dosage [6]: obviously increases with increasing dosage
